In patent US11332459B2 (TEIJIN PHARMA LIMITED, priority 2017, dated 2022):

target: T1, human TRPC6 (Homo sapiens, UniProt Q9Y210); assay: TRPC6 calcium flux assay (FLIPR, OAG-stimulated calcium influx); assay type: cell-based; conditions: HEK293 cells stably transfected with human TRPC6, read-out: hTRPC6 Potency
T1 construct: expressed in transfected cells
T1 sequence (Q9Y210 1-931): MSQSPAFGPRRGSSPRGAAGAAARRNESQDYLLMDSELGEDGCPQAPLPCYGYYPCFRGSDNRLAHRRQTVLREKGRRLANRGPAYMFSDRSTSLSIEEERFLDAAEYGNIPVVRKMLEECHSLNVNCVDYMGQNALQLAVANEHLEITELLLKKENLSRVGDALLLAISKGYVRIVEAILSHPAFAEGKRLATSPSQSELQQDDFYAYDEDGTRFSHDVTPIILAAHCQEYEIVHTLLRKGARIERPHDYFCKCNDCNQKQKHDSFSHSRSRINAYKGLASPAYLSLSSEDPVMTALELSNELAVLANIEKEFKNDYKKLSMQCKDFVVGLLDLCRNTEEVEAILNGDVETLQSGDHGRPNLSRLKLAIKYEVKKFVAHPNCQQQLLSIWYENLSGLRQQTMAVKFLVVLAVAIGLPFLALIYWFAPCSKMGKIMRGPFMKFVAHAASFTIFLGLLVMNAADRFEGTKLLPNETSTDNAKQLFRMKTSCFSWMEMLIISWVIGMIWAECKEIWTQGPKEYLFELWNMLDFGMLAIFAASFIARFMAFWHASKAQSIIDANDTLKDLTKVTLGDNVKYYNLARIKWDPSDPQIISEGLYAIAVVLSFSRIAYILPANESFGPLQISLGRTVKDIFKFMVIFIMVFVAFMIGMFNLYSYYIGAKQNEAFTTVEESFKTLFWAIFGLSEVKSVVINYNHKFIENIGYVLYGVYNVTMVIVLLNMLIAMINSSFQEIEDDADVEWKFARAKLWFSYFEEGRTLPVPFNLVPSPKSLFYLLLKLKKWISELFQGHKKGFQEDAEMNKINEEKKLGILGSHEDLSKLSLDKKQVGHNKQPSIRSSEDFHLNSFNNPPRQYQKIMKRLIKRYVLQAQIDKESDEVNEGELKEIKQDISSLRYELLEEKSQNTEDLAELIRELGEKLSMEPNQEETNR
Method in brief: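 HEK293 cells stably expressing human TRPC6, loaded with calcium dye 90–120 min at RT, then given compound for 25 min before OAG (50 uM final, 0.5% DMSO) in HEPES buffer pH 7.2 with 2 mM CaCl2. Background-subtracted FLIPR peak over 180 s normalized to OAG vs buffer; IC50 from dose plot.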

Row | SMILES | IC50
1 | COc1cccc2c1nc(N1CC[C@@H](F)[C@H](N)C1)n2Cc1ccc(C#N)cc1 [Example 411, 4-((2-((3R,4R)-3-amino-4-fluoropiperidin-1-yl)-4-methoxy-1H-benzo[d]imidazol-1-yl)methyl)benzonitrile] | 0.00268 µM
2 | N[C@@H]1CN(c2nc3ncc(F)cc3n2Cc2ncc(Cl)cn2)CC[C@H]1F [Example 555, (3R,4R)-1-(1-((5-chloropyrimidin-2-yl)methyl)-6-fluoro-1H-imidazo[4,5-b]pyridin-2-yl)-4-fluoropiperidin-3-amine] | 0.0116 µM
3 | N#Cc1ccc(Cn2c(N3CC[C@@H](F)[C@H](N)C3)nc3cc(Cl)c(OC(F)(F)F)cc32)nc1 [Example 125, 6-((2-((3R,4R)-3-amino-4-fluoro-1-piperidinyl)-5-chloro-6-(trifluoromethoxy)-1H-benzimidazol-1-yl)methyl)-3-pyridinecarbonitrile] | 0.000389 µM
4 | CO[C@H]1CCN(c2nc3cc(F)ccc3n2Cc2ncc(Cl)cn2)C[C@H]1N [Example 477, (3R,4S)-1-(1-((5-chloropyrimidin-2-yl)methyl)-5-fluoro-1H-benzo[d]imidazol-2-yl)-4-methoxypiperidin-3-amine] | 1.03 µM
5 | CO[C@H]1CCN(c2nc3ccc(F)cc3n2Cc2ccc(C#N)cn2)C[C@H]1N [Example 463, 6-((2-((3R,4S)-3-amino-4-methoxypiperidin-1-yl)-6-fluoro-1H-benzo[d]imidazol-1-yl)methyl)nicotinonitrile] | 0.0339 µM
6 | N[C@@H]1CN(c2nc3cc(F)c(F)cc3n2[C@H]2CCN(C3CC3)C2=O)CC[C@H]1F [Example 549, (S)-3-(2-((3R,4R)-3-amino-4-fluoropiperidin-1-yl)-5,6-difluoro-1H-benzo[d]imidazol-1-yl)-1-cyclopropylpyrrolidin-2-one] | 0.41 µM
7 | CN(CC(F)(F)F)C(=O)Cn1c(N2CC[C@H]3OCCN[C@@H]3C2)nc2ccc(F)cc21 [Example 488, 2-(6-fluoro-2-((4aR,8aR)-hexahydro-2H-pyrido[4,3-b][1,4]oxazin-6(5H)-yl)-1H-benzo[d]imidazol-1-yl)-N-methyl-N-(2,2,2-trifluoroethyl)acetamide] | > 3.75 µM
8 | Cc1nc(C)c(Cn2c(N3CC[C@@H](F)[C@H](N)C3)nc3cc(F)ccc32)s1 [Example 596, (3R,4R)-1-(1-((2,4-dimethylthiazol-5-yl)methyl)-5-fluoro-1H-benzo[d]imidazol-2-yl)-4-fluoropiperidin-3-amine] | > 3.75 µM
9 | N#Cc1cnc(Cn2c(N3CC[C@@H](F)[C@H](N)C3)nc3ccccc32)cn1 [Example 202, 5-((2-((3R,4R)-3-amino-4-fluoropiperidin-1-yl)-1H-benzo[d]imidazol-1-yl)methyl)pyrazine-2-carbonitrile] | 0.00214 µM
10 | N#Cc1ccc(Cn2c(N3CC[C@@H](F)[C@H](N)C3)nc3c(C(F)(F)F)cccc32)nc1 [Example 90, 6-((2-((3R,4R)-3-amino-4-fluoropiperidin-1-yl)-4-(trifluoromethyl)-1H-benzo[d]imidazol-1-yl)methyl)nicotinonitrile] | 0.068 µM
11 | N#Cc1ccc(Cn2c(N3CCC(F)(F)[C@H](N)C3)nc3ccc(C#N)cc32)cc1 [Example 160, 2-((3R)-3-amino-4,4-difluoro-1-piperidinyl)-1-(4-cyanobenzyl)-1H-benzimidazole-6-carbonitrile] | 0.0142 µM
12 | N[C@@H]1CCCN(c2nc3ccccc3n2Cc2cccc(Cl)c2)C1 [Example 378, (R)-1-(1-(3-chlorobenzyl)-1H-benzo[d]imidazol-2-yl)piperidin-3-amine] | 3.08 µM
13 | N[C@@H]1CCCN(c2nc3ccccc3n2Cc2c(Cl)cccc2Cl)C1 [Example 373, (R)-1-(1-(2,6-dichlorobenzyl)-1H-benzo[d]imidazol-2-yl)piperidin-3-amine] | 5.85 µM
14 | CC(c1ccncc1)N(C)C(=O)Cn1c(N2CC[C@@H](F)[C@H](N)C2)nc2cc(F)c(F)cc21 (stereo partly drawn) [Example 613, 2-(2-((3R,4R)-3-amino-4-fluoropiperidin-1-yl)-5,6-difluoro-1H-benzo[d]imidazol-1-yl)-N-methyl-N-(1-(pyridin-4-yl)ethyl)acetamide] | 0.0242 µM
15 | COc1ccc2nc(N3CCC[C@H](N)C3)n(Cc3ccc(C#N)cn3)c2c1 [Example 142, (S)-6-((2-(3-aminopiperidin-1-yl)-6-methoxy-1H-benzo[d]imidazol-1-yl)methyl)nicotinonitrile 2,2,2-trifluoroacetate] | 0.0138 µM
16 | N#Cc1ccc(Cn2c(N3CC[C@@](O)(CN)C3)nc3ccccc32)cc1 [Example 176, (R)-4-((2-(3-(aminomethyl)-3-hydroxypyrrolidin-1-yl)-1H-benzo[d]imidazol-1-yl)methyl)benzonitrile 2,2,2-trifluoroacetate] | 2.33 µM
17 | C[C@@H](c1ccc(C#N)cn1)n1c(N2CC[C@@H]3OCCN[C@H]3C2)nc2c(F)cc(F)cc21 [Example 269, 6-((1S)-1-(4,6-difluoro-2-((4aS,8aS)-hexahydro-2H-pyrido[4,3-b][1,4]oxazin-6(5H)-yl)-1H-benzimidazol-1-yl)ethyl)-3-pyridinecarbonitrile] | 0.00204 µM
18 | N[C@@H]1CN(c2nc3cc(F)c(F)cc3n2Cc2cccc(Cl)c2)CC[C@H]1F [Example 367, (3R,4R)-1-(1-(3-chlorobenzyl)-5,6-difluoro-1H-benzimidazol-2-yl)-4-fluoro-3-piperidinamine] | 0.354 µM
19 | N[C@@H]1CN(c2nc3cc(F)c(F)cc3n2CC(=O)N2CC3CC2CO3)CC[C@H]1F (stereo partly drawn) [Example 619, 2-(2-((3R,4R)-3-amino-4-fluoropiperidin-1-yl)-5,6-difluoro-1H-benzo[d]imidazol-1-yl)-1-(2-oxa-5-azabicyclo[2.2.1]heptan-5-yl)ethanone] | 0.0574 µM
20 | CC(F)(F)c1ccc(Cn2c(N3CCC[C@@H](N)C3)nc3ccccc32)cc1 [Example 379, (R)-1-(1-(4-(1,1-difluoroethyl)benzyl)-1H-benzo[d]imidazol-2-yl)piperidin-3-amine] | 4.44 µM
21 | N#Cc1ccc(Cn2c(N3CC[C@@H](F)[C@H](N)C3)nc3cc(F)c(F)cc32)nc1 [Example 72, 6-((2-((3R,4R)-3-amino-4-fluoropiperidin-1-yl)-5,6-difluoro-1H-benzo[d]imidazol-1-yl)methyl)nicotinonitrile] | 0.000448 µM
22 | N[C@@H]1CN(c2nc3cc(C(F)(F)F)ccc3n2CC(=O)N2CCOCC2)CC[C@@H]1F [Example 478, 2-(2-((3R,4S)-3-amino-4-fluoropiperidin-1-yl)-5-(trifluoromethyl)-1H-benzo[d]imidazol-1-yl)-1-morpholinoethan-1-one] | 1.05 µM
23 | N#Cc1ccc(Cn2c(N3CC[C@H](CN)C3)nc3ccccc32)cc1 [Example 179, (R)-4-((2-(3-(aminomethyl)pyrrolidin-1-yl)-1H-benzo[d]imidazol-1-yl)methyl)benzonitrile] | 0.326 µM
24 | N#Cc1ccc(Cn2c(N3CC[C@@H](F)[C@H](N)C3)nc3cc(F)c(F)cc32)c(OC(F)F)c1 [Example 342, 4-((2-((3R,4R)-3-amino-4-fluoro-1-piperidinyl)-5,6-difluoro-1H-benzimidazol-1-yl)methyl)-3-(difluoromethoxy)benzo-nitrile] | 0.0121 µM
25 | N[C@@H]1CN(c2nc3cc(F)c(F)cc3n2CC(=O)N2CC(n3cncn3)C2)CC[C@H]1F [Example 641, 1-(3-(1H-1,2,4-triazol-1-yl)azetidin-1-yl)-2-(2-((3R,4R)-3-amino-4-fluoropiperidin-1-yl)-5,6-difluoro-1H-benzo[d]imidazol-1-yl)ethanone] | 1.28 µM
